According to PubChem BioAssay (NCI):
“And” between values parts separate entries of the source, which are not always exact repeats. Identical values can stand only once.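 A five-concentration, 48-hour dose response in 96-well plates underlies each endpoint, interpolated linearly between surrounding concentrations. Here, GI50 denotes the concentration required for 50% inhibition of growth. TGI: total growth inhibition.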

What was measured:
Test in all cases: NCI tumour cell line growth inhibition, 48 h
LXFL 529 NSCLC = system: LXFL 529 NSCLC
RXF-631 renal = system: RXF-631 renal
SNB-78 CNS = system: SNB-78 CNS
P388 leukemia = system: P388 leukemia
P388/ADR leukemia = system: P388/ADR leukemia
SN12K1 renal = system: SN12K1 renal

C=CCc1cc(-c2cc(CC=C)c(O)c(CN(CCCl)CCCl)c2)cc(CN(CCCl)CCCl)c1O
TGI (LXFL 529 NSCLC): 29.7 µM
TGI (RXF-631 renal): 39.3 µM
TGI (SNB-78 CNS): > 100 µM

O=C(O)CCCCCCC[C@@H]1S[C@H]1CCCCCCO
TGI (P388 leukemia): > 100 µM
TGI (P388/ADR leukemia): > 100 µM
TGI (SN12K1 renal): > 100 µM
TGI (SNB-78 CNS): > 100 µM

COC(=O)CCC(=O)CC(=O)C1=NS(=O)(=O)c2nc(S(N)(=O)=O)c(Cl)cc2N1
TGI (LXFL 529 NSCLC): > 100 µM
TGI (RXF-631 renal): > 100 µM

CC1C(=O)OC2CC[N+]3(CC(=O)c4ccc(Br)cc4)CC=C(COC(=O)C(C)(O)C1(C)O)C23 (centres undefined)
TGI (P388 leukemia): > 174 µM
TGI (P388/ADR leukemia): > 375 µM
TGI (SN12K1 renal): > 375 µM
TGI (SNB-78 CNS): > 174 µM

Cc1cc(NC(=S)Nc2ccccc2)c(NC(=S)Nc2ccccc2)cc1C
TGI (P388 leukemia): 13.5 µM
TGI (P388/ADR leukemia): 19.1 µM
TGI (SN12K1 renal): > 59.1 µM

N#C[S-].[Nd+3].c1cnc2c(c1)ccc1cccnc12.c1cnc2c(c1)ccc1cccnc12.c1cnc2c(c1)ccc1cccnc12
GI50 (LXFL 529 NSCLC): 1.84 µM
TGI (LXFL 529 NSCLC): 14.8 µM

CC1=C(C)C(=O)O[C@@H]([C@](C)(O)[C@]2(O)CC[C@@]3(O)[C@@H]4C[C@H]5O[C@]56[C@@H](O)C=CC(=O)[C@]6(C)[C@H]4CC[C@]23C)C1
GI50 (P388 leukemia): 0.17 µM and 0.0616 µM
GI50 (P388/ADR leukemia): 2.5 µM and 0.487 µM
TGI (P388/ADR leukemia): 98.8 µM and 250 µM
GI50 (SN12K1 renal): 1.4 µM and 5.89 µM
TGI (SN12K1 renal): 6.39 µM and 21.6 µM

C[n+]1c2ccccc2c(CNc2ccc(S(=O)(=O)N=C(N)N)cc2)c2ccccc21
TGI (SNB-78 CNS): 78.1 µM
